Numbered stars: 1 amine (or outer) side, 2 acyl side, 3 side chain; on linkers, the order of the positions; unused ones are H or OH. Bridge positions count the residues as written; N and C are the ends. Square brackets hold non-standard residues; d marks the D form. Peptide text beside a SMILES is read from it. * marks the point of attachment. ξ: configuration not given here. Pro(4S-NHCO(5-Cl-2-thienyl)) = O=C(N[C@@H]1CN[C@H](C(=O)O)C1)c1ccc(Cl)s1; ξPro(4ξ-NHCOC6H4-4-Cl) = O=C(NC1CNC(C(=O)O)C1)c1ccc(Cl)cc1; 2Thenoyl(5-Cl) = O=C(c1ccc(Cl)s1)*; Benzoyl(4-Cl) = O=C(c1ccc(Cl)cc1)*; Cysteamide = C(CS[*:3])N[*:1]; X1 = O=C(/C=C/c1ccccc1)*; Api = NC1(C(=O)O)CCNCC1; Mpa = O=C(O)CCS
Biological target: MDM2 (Homo sapiens, UniProt Q00987)
Sequence (Q00987 whole entry): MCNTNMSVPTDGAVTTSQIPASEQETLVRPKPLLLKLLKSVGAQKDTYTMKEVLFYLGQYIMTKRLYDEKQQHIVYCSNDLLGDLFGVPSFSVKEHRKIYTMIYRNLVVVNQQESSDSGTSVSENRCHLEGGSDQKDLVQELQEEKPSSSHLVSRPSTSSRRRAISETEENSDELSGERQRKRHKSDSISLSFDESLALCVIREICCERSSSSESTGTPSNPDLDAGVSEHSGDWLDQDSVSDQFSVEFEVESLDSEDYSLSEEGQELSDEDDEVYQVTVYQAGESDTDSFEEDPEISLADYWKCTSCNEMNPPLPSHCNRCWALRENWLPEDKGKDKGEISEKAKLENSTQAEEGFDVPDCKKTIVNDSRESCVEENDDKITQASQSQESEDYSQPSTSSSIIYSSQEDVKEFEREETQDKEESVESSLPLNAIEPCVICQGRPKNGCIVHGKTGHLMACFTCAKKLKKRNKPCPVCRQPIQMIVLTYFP
Test: MDM2 binding screen: displacement of fluorescent p53 peptide probe FP53 (fluorescence polarization)
Details: crude macrocycle reactions; for fraction fluorescent probe displaced, Screen: initial screen
Procedure, shortened: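 Macrocycle reaction products at a final 10 µM were tested for displacement of a p53-based fluorescent peptide from human MDM2. Fluorescence anisotropy (ex 485/em 535 nm) was read once per macrocycle at 25 °C.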

| Compound | fraction fluorescent probe displaced, Screen (Acid 14) | fraction fluorescent probe displaced, Replicate (Acid 14) | fraction fluorescent probe displaced, Screen (Acid 91) | fraction fluorescent probe displaced, Replicate (Acid 91) | also measured |
| --- | --- | --- | --- | --- | --- |
| O=C1CCNC(=O)C(Cc2ccccc2)NC(=O)C2CC(NC(=O)c3ccc(Cl)s3)CN2C(=O)CCSSCCN1 (stereo not drawn) [X D5 F B2 Acid 14] | 0.08 | 0.0465 |  |  |  |
| O=C(C=Cc1ccccc1)NC1CC2C(=O)NC(Cc3ccccc3)C(=O)NCCC(=O)NCCSSCCC(=O)N2C1 (stereo not drawn) [X D5 F B2 Acid 91] |  |  | 0.0563 | -0.0333 |  |
| O=C(NC1CC2C(=O)NC(Cc3ccccc3)C(=O)N3CCCC(C3)C(=O)NCCSSCCC(=O)N2C1)c1ccc(Cl)s1 (stereo not drawn) [X D5 F B4 Acid 14] | 0.0241 | 0.10 |  |  |  |
| O=C(NC1CC2C(=O)NC(Cc3ccccc3)C(=O)N3CCCC(C3)C(=O)NCCSSCCC(=O)N2C1)c1ccc(Cl)cc1 (stereo not drawn) [X D5 F B4 Acid 25] |  |  |  |  | fraction fluorescent probe displaced, Screen (Acid 25): 0.0244; fraction fluorescent probe displaced, Replicate (Acid 25): 0.0211 |
| O=C1NCCSSCCC(=O)N2CC(NC(=O)c3ccc(Cl)s3)CC2C(=O)NC(Cc2ccccc2)C(=O)NCc2cccc1c2 (stereo not drawn) [X D5 F B5 Acid 14] | 0.11 | -0.03 |  |  |  |
| O=C1NCCSSCCC(=O)N2C[C@@H](NC(=O)c3ccc(Cl)cc3)C[C@H]2C(=O)N[C@@H](Cc2ccccc2)C(=O)NCc2cccc1c2 [X D5 F B5 Acid 25] |  |  |  |  | fraction fluorescent probe displaced, Screen (Acid 25): 0.0569; fraction fluorescent probe displaced, Replicate (Acid 25): 0.0465 |
| O=C(/C=C/c1ccccc1)N[C@H]1C[C@H]2C(=O)N[C@@H](Cc3ccccc3)C(=O)NCc3cccc(c3)C(=O)NCCSSCCC(=O)N2C1 [X D5 F B5 Acid 91] |  |  | -0.05 | -0.00827 |  |
| O=C(N[C@H]1C[C@H]2C(=O)N[C@@H](Cc3c[nH]c4ccccc34)C(=O)N3CCC[C@H]3C(=O)NCCSSCCC(=O)N2C1)c1ccc(Cl)s1 [X D5 W B1 Acid 14] ([Mpa][Pro(4S-NHCO(5-Cl-2-thienyl))]WP-Cysteamide; disulfide 1-C) | 0.23 | 0.10 |  |  |  |
| O=C(NC1CC2C(=O)NC(Cc3c[nH]c4ccccc34)C(=O)N3CCCC3C(=O)NCCSSCCC(=O)N2C1)c1ccc(Cl)cc1 (stereo not drawn) [X D5 W B1 Acid 25] ([Mpa][ξPro(4ξ-NHCOC6H4-4-Cl)]WP-Cysteamide; disulfide 1-C; configuration not given here) |  |  |  |  | fraction fluorescent probe displaced, Screen (Acid 25): 0.22; fraction fluorescent probe displaced, Replicate (Acid 25): 0.10 |
| O=C1CCNC(=O)C(Cc2c[nH]c3ccccc23)NC(=O)C2CC(NC(=O)c3ccc(Cl)s3)CN2C(=O)CCSSCCN1 (stereo not drawn) [X D5 W B2 Acid 14] | 0.17 | 0.17 |  |  |  |
| O=C(/C=C/c1ccccc1)N[C@H]1C[C@H]2C(=O)N[C@@H](Cc3c[nH]c4ccccc34)C(=O)NCCC(=O)NCCSSCCC(=O)N2C1 [X D5 W B2 Acid 91] |  |  | 0.00268 | -0.0333 |  |
| O=C(NC1CC2C(=O)NC(Cc3c[nH]c4ccccc34)C(=O)N3CCCC(C3)C(=O)NCCSSCCC(=O)N2C1)c1ccc(Cl)cc1 (stereo not drawn) [X D5 W B4 Acid 25] |  |  |  |  | fraction fluorescent probe displaced, Screen (Acid 25): 0.09; fraction fluorescent probe displaced, Replicate (Acid 25): 0.15 |
| O=C(C=Cc1ccccc1)NC1CC2C(=O)NC(Cc3c[nH]c4ccccc34)C(=O)N3CCCC(C3)C(=O)NCCSSCCC(=O)N2C1 (stereo not drawn) [X D5 W B4 Acid 91] |  |  | 0.0563 | 0.07 |  |
| O=C1NCCSSCCC(=O)N2CC(NC(=O)c3ccc(Cl)s3)CC2C(=O)NC(Cc2c[nH]c3ccccc23)C(=O)NCc2cccc1c2 (stereo not drawn) [X D5 W B5 Acid 14] | 0.08 | 0.0211 |  |  |  |
| O=C1NCCSSCCC(=O)N2C[C@@H](NC(=O)c3ccc(Cl)cc3)C[C@H]2C(=O)N[C@@H](Cc2c[nH]c3ccccc23)C(=O)NCc2cccc1c2 [X D5 W B5 Acid 25] |  |  |  |  | fraction fluorescent probe displaced, Screen (Acid 25): 0.0569; fraction fluorescent probe displaced, Replicate (Acid 25): 0.0465 |
| O=C(/C=C/c1ccccc1)N[C@H]1C[C@H]2C(=O)N[C@@H](Cc3c[nH]c4ccccc34)C(=O)NCc3cccc(c3)C(=O)NCCSSCCC(=O)N2C1 [X D5 W B5 Acid 91] |  |  | -0.05 | 0.0168 |  |
| O=C1CCSSCCNC(=O)C(Cc2ccccc2)NC(=O)C2CCCN2C(=O)C2(CCN(C(=O)c3ccc(Cl)s3)CC2)N1 (stereo not drawn) [X D6 B1 F Acid 14] ([Mpa][Api](2Thenoyl(5-Cl))PF-Cysteamide; disulfide 1-C; configuration not given here) | -0.00483 | 0.0465 |  |  |  |
| O=C1CCSSCCNC(=O)[C@H](Cc2ccccc2)NC(=O)[C@@H]2CCCN2C(=O)C2(CCN(C(=O)c3ccc(Cl)cc3)CC2)N1 [X D6 B1 F Acid 25] ([Mpa][Api](Benzoyl(4-Cl))PF-Cysteamide; disulfide 1-C) |  |  |  |  | fraction fluorescent probe displaced, Screen (Acid 25): 0.0569; fraction fluorescent probe displaced, Replicate (Acid 25): 0.07 |
| O=C1CCSSCCNC(=O)[C@H](Cc2ccccc2)NC(=O)[C@@H]2CCCN2C(=O)C2(CCN(C(=O)/C=C/c3ccccc3)CC2)N1 [X D6 B1 F Acid 91] ([Mpa][Api](X1)PF-Cysteamide; disulfide 1-C) |  |  | -0.08 | -0.11 |  |
| O=C1CCSSCCNC(=O)[C@H](Cc2c[nH]c3ccccc23)NC(=O)[C@@H]2CCCN2C(=O)C2(CCN(C(=O)c3ccc(Cl)s3)CC2)N1 [X D6 B1 W Acid 14] ([Mpa][Api](2Thenoyl(5-Cl))PW-Cysteamide; disulfide 1-C) | 0.08 | 0.07 |  |  |  |
| O=C1CCSSCCNC(=O)[C@H](Cc2c[nH]c3ccccc23)NC(=O)[C@@H]2CCCN2C(=O)C2(CCN(C(=O)/C=C/c3ccccc3)CC2)N1 [X D6 B1 W Acid 91] ([Mpa][Api](X1)PW-Cysteamide; disulfide 1-C) |  |  | -0.05 | 0.04 |  |
| O=C1CCNC(=O)C2(CCN(C(=O)c3ccc(Cl)s3)CC2)NC(=O)CCSSCCNC(=O)[C@H](Cc2ccccc2)N1 [X D6 B2 F Acid 14] | 0.08 | 0.0465 |  |  |  |
| O=C1CCNC(=O)C2(CCN(C(=O)c3ccc(Cl)cc3)CC2)NC(=O)CCSSCCNC(=O)[C@H](Cc2ccccc2)N1 [X D6 B2 F Acid 25] |  |  |  |  | fraction fluorescent probe displaced, Screen (Acid 25): 0.0244; fraction fluorescent probe displaced, Replicate (Acid 25): 0.0211 |
| O=C1CCNC(=O)C2(CCN(C(=O)/C=C/c3ccccc3)CC2)NC(=O)CCSSCCNC(=O)[C@H](Cc2ccccc2)N1 [X D6 B2 F Acid 91] |  |  | -0.0241 | -0.00827 |  |

— PMC9250534, “Synthesis and direct assay of large macrocycle diversities by combinatorial late-stage modification at picomole scale” (Nature Communications, 2022)
